Reference: patent publication US5401648A, “Peptides having peptidyl transferase inhibiting activity and methods of use thereof” (University of Maryland College Park, priority 1993, dated 1995)

Experiments:
[1] = system: peptidyl transferase activity of the 50S subunits; experiment: Fragment reaction peptidyl transferase assay with dissociated 50S subunits; format: biochemical, B. subtilis BR151
Protocol: (§1) The fragment reaction was used to assay peptidyl transferase activity. Reaction mixes consisted of 60 mM Tris-HCl (pH 7.4), 400 mM KCl, 20 mM magnesium sulfate, and 1 mM neutralized puromycin in 50 μl, to which was added 25 μl absolute ethanol. Unless specifically noted, 70S ribosomes purified from B. subtilis BR151 as described in Spedding^1/ were added to 0.55 uM ^35 S-labeled N-formylmethionine, charged to tRNA and digested with endonuclease T1 as described by Marcker^2/, was added to each reaction at 1×10^6 to 2×10^6 cpm.
(§2) Peptide inhibitors were typically preincubated with the ribosomes prior to addition to the other reactants. Antibiotic inhibitors such as chloramphenicol were added to reaction mixes with the ribosomes but without the preincubation step. […] Peptidyl transferase reaction mixes were incubated on ice for 1 h, and were terminated by addition of 50 μl of 0.3M sodium acetate saturated with magnesium sulfate followed by 1 ml of ethyl acetate. The ethyl acetate phase was counted for radioactivity. All peptidyl transferase assays were performed in duplicate or triplicate, and the replicates varied by less than 5%. In separate experiments, the inhibitory activity of a single peptide preparation on a single ribosome preparation varied by as much as 10%.
The 50S subunit contains the target for the 5-mer peptide. […]

peptidyl transferase = experiment: Fragment reaction peptidyl transferase assay with 70S ribosomes; format: biochemical, B. subtilis BR151; conditions: preincubation of inhibitor with ribosomes prior to addition to other reactants
Protocol: as §1, §2

Row | Compound | effect on the peptidyl transferase activity of the 50S subunits [1] | effect of preincubation with ribosomes on inhibitory effect on peptidyl transferase (peptidyl transferase)
1 | 4-mer: 4-mer comparison peptide (SEQ ID NO: 5), sequence not printed in the text (MVKT) | little effect | –
2 | O=C(N[C@H](CO)[C@H](O)c1ccc([N+](=O)[O-])cc1)C(Cl)Cl [chloramphenicol] | – | failed to increase
